In patent publication US9499550B2 (BRISTOL-MYERS SQUIBB COMPANY, priority 2012, dated 2016):
Like-named read-outs stand apart in the source and are kept apart here.

Tests used:
[1] = system: HCV genotype 1b (Con1) replicon in HUH-7 cells; test: HCV replicon luciferase reporter assay, genotype 1b; type: cell-based; details: Hepatitis C virus, Huh-7, 72 h, 3 days incubation, read-out: LE_1b (EC50, range)
Method in brief: (§1)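 Replicon inhibition for both genotypes was measured as Renilla luciferase signal (EnduRen, 7.5 μM final, 2 h) after 3-day, 37° C exposure of replicon-bearing HUH-7 cells in 4% FCS DMEM, 0.5% DMSO. The 1b construct carries S1179I; the 1a H77 construct carries P1496L and S2204I. Twenty-point, 3-fold dilutions were fitted four-parametrically for EC50, and CC50 was taken from multiplexed Cell Titer-Blue.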

[2] = system: HCV genotype 1a (H77 strain) replicon in HUH-7 cells; test: HCV replicon luciferase reporter assay, genotype 1a; type: cell-based; details: Hepatitis C virus, Huh-7, 72 h, 3 days incubation, read-out: LE_1a (EC50, range)
Method in brief: as §1

[3] = HCV genotype 1b replicon luciferase
[4] = HCV genotype 1a replicon luciferase
[5] = HCV genotype 1b replicon luciferase assay, range class
[6] = HCV genotype 1a replicon luciferase assay, range class

Which EC50 [1, 3] does the source give for `[2H]C([2H])([2H])C(OC(=O)N[C@@H]1C(=O)N2C[C@H](Oc3nccc4cc(OCCC)ccc34)C[C@H]2C(=O)N[C@]2(C(=O)NS(=O)(=O)C3CC3)C[C@H]2/C=C\CC[C@H](C)C[C@H]1C)(C([2H])([2H])[2H])C(F)(F)F` [Compound 5172] here?
Its EC50 is < 5.46 nM.

And the EC50 [2, 4]?
Its EC50 is 4.82 to 103 nM.

For `CC[C@@H]1C[C@H](C)CC/C=C\[C@@H]2C[C@@]2(C(=O)NS(=O)(=O)C2(C)CC2)NC(=O)[C@@H]2C[C@@H](Oc3ncc(OC)c4ccccc34)CN2C(=O)[C@H]1NC(=O)OC(C)(C)C(F)F` [Compound 5533, 1,1-difluoro-2-methylpropan-2-yl((2R,6S,7R,9R,13aS,14aR,16aS,Z)-7-ethyl-2-((4-methoxyisoquinolin-1-yl)oxy)-9-methyl-14a-(((1-methylcyclopropyl)sulfonyl)carbamoyl)-5,16-dioxo-1,2,3,5,6,7,8,9,10,11,13a,14,14a,15,16,16a-hexadecahydrocyclopropa[e]pyrrolo[1,2-a][1,4]diazacyclopentadecin-6-yl)carbamate], which EC50 [1, 3] is on record?
The EC50 was 0.1 to 0.5 nM.

And the EC50 [2, 4]?
The EC50 was 1.01 to 5 nM.

Which EC50 [1, 3] does the source give for `CC[C@@H]1C[C@H](C)CC/C=C\[C@@H]2C[C@@]2(C(=O)NS(=O)(=O)C2(C)CC2)NC(=O)[C@@H]2C[C@@H](Oc3nc4c(c5ccccc35)OCCC4)CN2C(=O)[C@H]1NC(=O)OC(C)(C)C` [Compound 6024, tert-butyl ((2R,6S,7R,9R,13aS,14aR,16aS,Z)-2-((3,4-dihydro-2H-pyrano[3,2-c]isoquinolin-6-yl)oxy)-7-ethyl-9-methyl-14a-(((1-methylcyclopropyl)sulfonyl)carbamoyl)-5,16-dioxo-1,2,3,5,6,7,8,9,10,11,13a,14,14a,15,16,16a-hexadecahydrocyclopropa[e]pyrrolo[1,2-a][1,4]diazacyclopentadecin-6-yl)carbamate] here?
The EC50 was < 5.46 nM.

And the EC50 [2, 4]?
Its EC50 is < 5.46 nM.

Which EC50 [1, 3] does the source give for `COc1cnc(O[C@@H]2C[C@H]3C(=O)N[C@]4(C(=O)NS(=O)(=O)C5(CF)CC5)C[C@H]4CCCC[C@H](C)C[C@@H](C)[C@H](NC(=O)OC(C)(C)C(C)(F)F)C(=O)N3C2)c2ccccc12` [Compound 5118, 3,3-difluoro-2-methylbutan-2-yl ((2R,6S,7R,9S,13 aR,14aR,16aS)-14a-(((1-(fluoromethyl)cyclopropyl)sulfonyl)carbamoyl)-2-((4-methoxyisoquinolin-1-yl)oxy)-7,9-dimethyl-5,16-dioxooctadecahydrocyclopropa[e]pyrrolo[1,2-a][1,4]diazacyclopentadecin-6-yl)carbamate] here?
The EC50 was 4.82 to 103 nM.

What about the EC50 [2, 4] of the same compound?
Its EC50 is 4.82 to 103 nM.

Which results are given for `COc1cnc(O[C@@H]2C[C@H]3C(=O)N[C@]4(C(=O)NS(=O)(=O)C5(CF)CC5)C[C@H]4/C=C\CC[C@@H](C)C[C@@H](C)[C@H](NC(=O)OC4(C)CCOC4)C(=O)N3C2)c2ccccc12` (stereo partly drawn) [Compound 1064, 3-methyltetrahydrofuran-3-yl ((2R,6S,7R,9R,13aS,14aR,16aS,Z)-14a-(((1-(fluoromethyl)cyclopropyl)sulfonyl)carbamoyl)-2-((4-methoxyisoquinolin-1-yl)oxy)-7,9-dimethyl-5,16-dioxo-1,2,3,5,6,7,8,9,10,11,13a,14,14a,15,16,16a-hexadecahydrocyclopropa[e]pyrrolo[1,2-a][1,4]diazacyclopentadecin-6-yl)carbamate]?
EC50 [1, 5]: < 5.46 nM; EC50 [2, 6]: < 5.46 nM

Which EC50 [1, 5] does the source give for `COCCOc1cnc(O[C@@H]2C[C@H]3C(=O)N[C@]4(C(=O)NS(=O)(=O)C5(C)CC5)C[C@H]4/C=C\CC[C@@H](C)C[C@@H](C)[C@H](NC(=O)OC(C)(C)C)C(=O)N3C2)c2ccccc12` [Compound 1027, tert-butyl ((2R,6S,7R,9R,13aS,14aR,16aS,Z)-2-((4-(2-methoxyethoxyl)isoquinolin-1-yl)oxy)-7,9-dimethyl-14a-(((1-methylcyclopropyl)sulfonyl)carbamoyl)-5,16-dioxo-1,2,3,5,6,7,8,9,10,11,13a,14,14a,15,16,16a-hexadecahydrocyclopropa[e]pyrrolo[1,2-a][1,4]diazacyclopentadecin-6-yl)carbamate] here?
The EC50 was < 5.46 nM.

What about the EC50 [2, 6] of the same compound?
The EC50 was < 5.46 nM.

For `CCCOc1ccc2c(O[C@@H]3C[C@H]4C(=O)N[C@]5(C(=O)NS(=O)(=O)C6CC6)C[C@H]5/C=C\CC[C@H](C)C[C@@H](C)[C@H](NC(=O)OC(C)(C)C)C(=O)N4C3)nccc2c1` [Compound 5168, tert-butyl ((2R,6S,7R,9S,13aS,14aR,16aS,Z)-14a-((cyclopropylsulfonyl)carbamoyl)-7,9-dimethyl-5,16-dioxo-2-((6-propoxyisoquinolin-1-yl)oxy)-1,2,3,5,6,7,8,9,10,11,13a,14,14a,15,16,16a-hexadecahydrocyclopropa[e]pyrrolo[1,2-a][1,4]diazacyclopentadecin-6-yl)carbamate], which EC50 [1, 3] is on record?
The EC50 was < 5.46 nM.

What about the EC50 [2, 4] of the same compound?
Its EC50 is < 5.46 nM.

`COc1cc2ccnc(O[C@@H]3C[C@H]4C(=O)N[C@]5(C(=O)NS(=O)(=O)C6(F)CC6)C[C@H]5/C=C\CC[C@@H](C)C[C@@H](C)[C@H](NC(=O)OCC(C)(C)C)C(=O)N4C3)c2cc1Cl` [Compound 4042, neopentyl (2R,6S,7R,9R,13aS,14aR,16aS,Z)-2-(7-chloro-6-methoxyisoquinolin-1-yloxy)-14a-(1-fluorocyclopropylsulfonylcarbamoyl)-7,9-dimethyl-5,16-dioxo-1,2,3,5,6,7,8,9,10,11,13a,14,14a,15,16,16a-hexadecahydrocyclopropa[e]pyrrolo[1,2-a][1,4]diazacyclopentadecin-6-ylcarbamate] was tested. Which EC50 [1, 3] did it give?
Its EC50 is < 5.46 nM.

And the EC50 [2, 4]?
The EC50 was < 5.46 nM.

Which results are given for `COc1cccc2c(O[C@@H]3C[C@H]4C(=O)N[C@]5(C(=O)NS(=O)(=O)C6(C)CC6)C[C@H]5/C=C\CC[C@@H](C)C[C@@H](C)[C@H](NC(=O)OC(C)(C)C)C(=O)N4C3)nccc12` [Compound 3036, tert-butyl ((2R,6S,7R,9R,13aS,14aR,16aS,Z)-2-((5-methoxyisoquinolin-1-yl)oxy)-7,9-dimethyl-14a-(((1-methylcyclopropyl)sulfonyl)carbamoyl)-5,16-dioxo-1,2,3,5,6,7,8,9,10,11,13a,14,14a,15,16,16a-hexadecahydrocyclopropa[e]pyrrolo[1,2-a][1,4]diazacyclopentadecin-6-yl)carbamate]?
EC50 [1, 5]: < 5.46 nM; EC50 [2, 6]: < 5.46 nM

What does the source list for `COc1cnc(O[C@@H]2C[C@H]3C(=O)N[C@]4(C(=O)NS(=O)(=O)C5(C)CC5)C[C@H]4/C=C\CC[C@H](C)C[C@@H](C)[C@H](NC(=O)OC(C)(C)C(F)(F)F)C(=O)N3C2)c2ccc(N(C)C)cc12` [Compound 3137, 1,1,1-trifluoro-2-methylpropan-2-yl((2R,6S,7R,9S,13aS,14aR,16aS,Z)-2-((6-(dimethylamino)-4-methoxyisoquinolin-1-yl)oxy)-7,9-dimethyl-14a-(((1-methylcyclopropyl)sulfonyl)carbamoyl)-5,16-dioxo-1,2,3,5,6,7,8,9,10,11,13a,14,14a,15,16,16a-hexadecahydrocyclopropa[e]pyrrolo[1,2-a][1,4]diazacyclopentadecin-6-yl)carbamate]?
EC50 [1, 5]: < 5.46 nM; EC50 [2, 6]: < 5.46 nM

`COc1ccc2c(O[C@@H]3C[C@H]4C(=O)N[C@]5(C(=O)NS(=O)(=O)C6(C)CC6)C[C@H]5/C=C\CC[C@@H](C)C[C@@H](C)[C@H](NC(=O)OC(C)(C)C)C(=O)N4C3)ncc(-c3ccc(OC)nc3)c2c1` [Compound 4087, tert-butyl (2R,6S,7R,9R,13aS,14aR,16aS,Z)-2-(6-methoxy-4-(6-methoxypyridin-3-yl)isoquinolin-1-yloxy)-7,9-dimethyl-14a-(1-methylcyclopropylsulfonylcarbamoyl)-5,16-dioxo-1,2,3,5,6,7,8,9,10,11,13a,14,14a,15,16,16a-hexadecahydrocyclopropa[e]pyrrolo[1,2-a][1,4]diazacyclopentadecin-6-ylcarbamate] was tested. Which EC50 [1, 3] did it give?
Its EC50 is < 5.46 nM.

And the EC50 [2, 4]?
The EC50 was < 5.46 nM.

How did the EC50 [1, 3] turn out when `COc1ccc2c(O[C@@H]3C[C@H]4C(=O)N[C@]5(C(=O)NS(=O)(=O)C6(F)CC6)C[C@H]5/C=C\CC[C@@H](C)C[C@@H](C)[C@H](NC(=O)O[C@H](C)C(F)(F)F)C(=O)N4C3)nccc2c1` [Compound 4020] was run?
Its EC50 is < 5.46 nM.

And the EC50 [2, 4]?
The EC50 was < 5.46 nM.

For `CCCOc1cc2c(Cl)cccc2c(O[C@@H]2C[C@H]3C(=O)N[C@]4(C(=O)NS(=O)(=O)C5CC5)C[C@H]4/C=C\CC[C@@H](C)C[C@@H](C)[C@H](NC(=O)OC(C)(C)C)C(=O)N3C2)n1` [Compound 1070, tert-butyl ((2R,6S,7R,9R,13aS,14aR,16aS,Z)-2-((5-chloro-3-propoxyisoquinolin-1-yl)oxy)-14a-((cyclopropylsulfonyl)carbamoyl)-7,9-dimethyl-5,16-dioxo-1,2,3,5,6,7,8,9,10,11,13a,14,14a,15,16,16a-hexadecahydrocyclopropa[e]pyrrolo[1,2-a][1,4]diazacyclopentadecin-6-yl)carbamate], which EC50 [1, 5] is on record?
Its EC50 is < 5.46 nM.

What about the EC50 [2, 6] of the same compound?
The EC50 was < 5.46 nM.

What does the source list for `CC[C@@H]1C[C@H](C)CC/C=C\[C@@H]2C[C@@]2(C(=O)NS(=O)(=O)C2(C)CC2)NC(=O)[C@@H]2C[C@@H](Oc3ncc(N4CCOCC4)c4ccccc34)CN2C(=O)[C@H]1NC(=O)OC(C)(C)C(C)(F)F` [Compound 5457, 3,3-difluoro-2-methylbutan-2-yl((2R,6S,7R,9R,13aS,14aR,16aS,Z)-7-ethyl-9-methyl-14a-(((1-methylcyclopropyl)sulfonyl)carbamoyl)-2-((4-morpholinoisoquinolin-1-yl)oxy)-5,16-dioxo-1,2,3,5,6,7,8,9,10,11,13a,14,14a,15,16,16a-hexadecahydrocyclopropa[e]pyrrolo[1,2-a][1,4]diazacyclopentadecin-6-yl)carbamate]?
EC50 [1, 3]: 0.51 to 1 nM; EC50 [2, 4]: 1.01 to 5 nM
